Measurements published in ChEMBL document CHEMBL3792383, “C-cinnamoyl glycosides as a new class of anti-filarial agents” (Eur J Med Chem, 2016).
Converted amounts (≈) assume the structure as drawn. The source made the active and inactive calls. The calls are words filed in the database; no cut-off is given here.

Experiments:
Setaria cervi [1] = test: Antifilarial activity against microfilaria of Setaria cervi assessed as inhibition of worm viability after 24 hrs by MTT assay; assay type: functional
Setaria cervi [2] = test: Antifilarial activity against microfilaria of Setaria cervi assessed as inhibition of relative movability after 24 hrs by microscopy; assay type: functional, organism-based
Setaria cervi [3] = test: Potency index, ratio of ivermectin LC50 to compound LC50 for microfilaria of Setaria cervi by MTT assay; assay type: functional
Setaria cervi [4] = test: Induction of cuticular sheath damage in microfilaria of Setaria cervi after 24 hrs by scanning electron microscopy; assay type: functional, organism-based
Setaria cervi [5] = test: Induction of apoptosis in microfilaria of Setaria cervi assessed as DNA fragmentation after 24 hrs by Hoechst 33342 staining-based fluorescence microscopy; assay type: functional, organism-based
Setaria cervi [6] = test: Induction of apoptosis in microfilaria of Setaria cervi assessed as DNA fragmentation after 24 hrs by propidium iodide staining-based inverted fluorescence microscopy; assay type: functional, organism-based
[7] = Antifilarial activity against microfilaria of Wuchereria bancrofti assessed as inhibition of relative movability after 24 hrs by microscopy; assay type: functional
Setaria cervi [8] = test: Induction of apoptosis in microfilaria of Setaria cervi assessed as chromatin condensation after 24 hrs by propidium iodide staining-based inverted fluorescence microscopy; assay type: functional, organism-based
Setaria cervi [9] = test: Induction of apoptosis in microfilaria of Setaria cervi assessed as chromatin condensation after 24 hrs by Hoechst 33342 staining-based fluorescence microscopy; assay type: functional, organism-based
[10] = Selectivity index, ratio of CC50 for human normal kidney epithelial cells to IC50 for microfilaria of Setaria cervi; assay type: functional, Epithelial cell
Wuchereria bancrofti = test: Antifilarial activity against microfilaria of Wuchereria bancrofti assessed as reduction in worm viability at 18 nM after 24 hrs by MTT assay; assay type: functional
[11] = Cytotoxicity against human normal kidney epithelial cells after 24 hrs by MTT assay; assay type: cell-based, Epithelial cell

Molecule	LC50 (Setaria cervi [1])	IC50 (Setaria cervi [2]; Setaria cervi, 24 h)	MIC (Setaria cervi [2]; Setaria cervi, 24 h)	other results
COc1ccc(/C=C/C(=O)C[C@@H]2O[C@H](COC(C)=O)[C@@H](OC(C)=O)[C@H](OC(C)=O)[C@H]2OC(C)=O)cc1OC	274 nM	81.4 nM	0.0629 µM (≈ 33.7 ng/mL)	–
CC(=O)OC[C@H]1O[C@@H](CC(=O)/C=C/c2cc(Cl)cc(Cl)c2)[C@H](OC(C)=O)[C@@H](OC(C)=O)[C@@H]1OC(C)=O	15.8 nM	7.52 nM	0.00532 µM (≈ 2.9 ng/mL)	RatioLC50 (Setaria cervi [3]): 5.4; Activity (Setaria cervi [4]): inactive; Activity (Setaria cervi [5]): Active; Activity (Setaria cervi [6]): Active; IC50 [7]: 9.33 nM; MIC [7]: 0.00476 µM (≈ 2.6 ng/mL); inhibition [7]: Dose-dependent effect; Activity (Setaria cervi [8]): Active; Activity (Setaria cervi [9]): Active; Ratio CC50/IC50 [10]: 4.94; Activity (Wuchereria bancrofti): 73.1%; CC50 at 24 h [11]: 32.9 nM
CC(=O)OC[C@H]1O[C@@H](CC(=O)/C=C/c2ccc(OCc3ccccc3)cc2)[C@H](OC(C)=O)[C@@H](OC(C)=O)[C@@H]1OC(C)=O	> 900 nM	348 nM	0.263 µM (≈ 153 ng/mL)	–
COc1cc(/C=C/C(=O)C[C@@H]2O[C@H](COC(C)=O)[C@@H](OC(C)=O)[C@H](OC(C)=O)[C@H]2OC(C)=O)cc(OC)c1OC	140 nM	76.4 nM	0.0602 µM (≈ 34.1 ng/mL)	–
CC(=O)OC[C@H]1O[C@@H](CC(=O)/C=C/c2cccc([N+](=O)[O-])c2)[C@H](OC(C)=O)[C@@H](OC(C)=O)[C@@H]1OC(C)=O	29 nM	11.3 nM	0.00594 µM (≈ 3.1 ng/mL)	Ratio CC50/IC50 [10]: 1.44; CC50 at 24 h [11]: 15.4 nM
CCOc1ccc(/C=C/C(=O)C[C@@H]2O[C@H](COC(C)=O)[C@@H](OC(C)=O)[C@H](OC(C)=O)[C@H]2OC(C)=O)cc1	76.8 nM	51.4 nM	0.0279 µM (≈ 14.5 ng/mL)	–
CC(=O)OC[C@H]1O[C@@H](CC(=O)/C=C/c2ccc(O)cc2)[C@H](OC(C)=O)[C@@H](OC(C)=O)[C@@H]1OC(C)=O	> 900 nM	> 900 nM	> 0.9 µM	–
CC(=O)OC[C@H]1O[C@@H](CC(=O)/C=C/c2cc(Cl)cc(Cl)c2O)[C@H](OC(C)=O)[C@@H](OC(C)=O)[C@@H]1OC(C)=O	44.4 nM	17.7 nM	0.00919 µM (≈ 5.16 ng/mL)	–
CC(=O)OC[C@H]1O[C@@H](CC(=O)/C=C/c2cccc3ccccc23)[C@H](OC(C)=O)[C@@H](OC(C)=O)[C@@H]1OC(C)=O	19.4 nM	13.5 nM	0.0117 µM (≈ 6.15 ng/mL)	–
CC(=O)OC[C@H]1O[C@@H](CC(=O)/C=C/c2cccs2)[C@H](OC(C)=O)[C@@H](OC(C)=O)[C@@H]1OC(C)=O	257 nM	46.9 nM	0.0245 µM (≈ 11.8 ng/mL)	–
CC(=O)OC[C@H]1O[C@@H](CC(=O)/C=C/c2ccc(Cl)cc2)[C@H](OC(C)=O)[C@@H](OC(C)=O)[C@@H]1OC(C)=O	51.9 nM	26.6 nM	0.0167 µM (≈ 8.54 ng/mL)	–
CC(=O)OC[C@H]1O[C@@H](CC(=O)/C=C/c2ccc(OC(C)=O)cc2)[C@H](OC(C)=O)[C@@H](OC(C)=O)[C@@H]1OC(C)=O	336 nM	119 nM	0.0342 µM (≈ 18.3 ng/mL)	–
CC(=O)OC[C@H]1O[C@@H](CC(=O)/C=C/c2cccnc2)[C@H](OC(C)=O)[C@@H](OC(C)=O)[C@@H]1OC(C)=O	26.7 nM	7.64 nM	0.00377 µM (≈ 1.8 ng/mL)	Ratio CC50/IC50 [10]: 0.56; CC50 at 24 h [11]: 4.17 nM
CC(=O)OC[C@H]1O[C@@H](CC(=O)/C=C/c2ccc(Cl)c(Cl)c2)[C@H](OC(C)=O)[C@@H](OC(C)=O)[C@@H]1OC(C)=O	13.2 nM	6.97 nM	0.00458 µM (≈ 2.5 ng/mL)	RatioLC50 (Setaria cervi [3]): 6.5; Activity (Setaria cervi [4]): Active; Activity (Setaria cervi [5]): Active; Activity (Setaria cervi [6]): Active; IC50 [7]: 6.77 nM; MIC [7]: 0.00458 µM (≈ 2.5 ng/mL); inhibition [7]: Dose-dependent effect; Activity (Setaria cervi [8]): Active; Activity (Setaria cervi [9]): Active; Ratio CC50/IC50 [10]: 3.97; Activity (Wuchereria bancrofti): 81.09%; CC50 at 24 h [11]: 25.8 nM
IVERMECTIN	53.6 nM	–	–	MIC (Setaria cervi [2]): 0.00743 µM; Activity (Wuchereria bancrofti): 17.6%
